Structures can show the parent of a compound that is named as a salt.
Experiments:
[1] = system: Thrombocyte aggregation (collagen-induced); experiment: Collagen-induced platelet aggregation in platelet-rich plasma (Born and Cross method); format: cell-based; conditions: Homo sapiens, 10 min, platelet-rich plasma of healthy volunteers, 10 minutes incubation at 37° C., compounds of general formula I, read-out: Inhibition of platelet aggregation EC50
Experimental: 2. Antithrombotic activity Thrombocyte aggregation is measured using the Born and Cross method (J. Physiol. 170: 397 (1964)) in platelet-rich plasma taken from healthy volunteers. To inhibit coagulation the blood is mixed with 3.14% sodium citrate in a ratio by volume of 1:10. Collagen-induced aggregation The pattern of the decrease in optical density of the platelet suspension is photometrically measured and recorded after the addition of the aggregation-triggering substance. The rate of aggregation is determined from the angle of inclination of the density curve. The point on the curve where there is maximum light transmittance is used to calculate the optical density. The amount of collagen used is as small as possible but sufficient to produce an irreversible reaction curve. Standard commercial collagen produced by Hormonchemie of Munich is used. Before the addition of the collagen the plasma is incubated for 10 minutes with the test substance at 37° C. From the measurements obtained, an EC50 is determined graphically, indicating a 50% change in the optical density in terms of the inhibition of aggregation. B. Antithrombotic effect Platelet aggregation is measured by the method of Born and Cross (J. Physiol. 170, 397 (1964)) in platelet-rich plasma from healthy test subjects. For anticoagulation, sodium citrate 3.14% is added to the blood in the ratio 1:10 by volume. Collagen-induced aggregation The course of the decrease in optical density of the platelet suspension is measured and recorded photometrically after addition of the aggregation-inducing substance. The rate of aggregation is established from the angle of inclination of the density plot. The point on the plot at which the transmission of light is a maximum is used to calculate the optical density. The amount of collagen is chosen to be as small as possible but sufficient for the reaction plot to have an irreversible course. The collagen commercially obtainable from Hormonchemie, Munich, is used. Before the addition of collagen the plasma is in each case incubated with the substance at 37° C. for 10 minutes. An EC50 which relates to a 50% change in the optical density in the sense of inhibition of aggregation is determined graphically from the measured results.

mice = experiment: Tolerance after intravenous administration in mice; format: in vivo; conditions: mice (three), 30 mg/kg
Human thrombocytes = experiment: Inhibition of the binding of 3H-BIBU 52 to human thrombocytes (platelets); conditions: human thrombocytes in plasma; 3H-BIBU 52 5 nM; 20 minutes, ambient temperature; read-out: 3H-BIBU 52-binding test IC50
Experimental: 1. Inhibition of the binding of ^3 H-BIBU 52 to Human thrombocytes […] Case 5/1093-FL) and various concentrations of the test substance. The free and bound ligand are separated by centrifuging and quantitatively measured by scintillation counting. From the measurements obtained the inhibition of ^3 H-BIBU 52 binding caused by the test substance is determined. In order to do this, donor blood is taken from an anticubital vein and anti-coagulated with trisodium citrate (final concentration 13 mM). The blood is centrifuged for 10 minutes at 170×g and the supernatant platelet-rich plasma (PRP) is removed. The remaining blood is centrifuged vigorously once more in order to recover plasma. The PRP is diluted with autologous plasma 1:10. 750 μl are incubated for 20 minutes at ambient temperature with 50 μl of physiological saline solution, 100 μl of test substance solution, 50 μl of ^14 C-sucrose (3700 Bq) and 50 μl of ^3 H-BIBU 52 (final concentration: 5 nM). In order to measure the non specific binding, 5 μl of BIBU 52 (final concentration 30 μM) are used instead of the test substance. […] The pellet is dissolved in 500 μl of 0.2N NaOH, 450 μl are mixed with 2 ml of scintallator and 25 μl of 5N HCl, and measured. The residual plasma remaining in the pellet is determined from the ^14 C-content, and the bound ligand is determined from the ^3 H-measurement. After substracting the non specific binding, the pellet activity is plotted against the concentration of the test substance and the concentration for 50% inhibition of binding is determined. A. Inhibition of the binding of ^3 H-BIBU 52 to human platelets […] The free and bound ligand is separated by centrifugation and determined quantitatively by scintillation counting. The inhibition of ^3 H-BIBU 52 binding by the test substance is determined from the measurements. For this purpose, donor blood is taken from an antecubital vein and anticoagulated with trisodium citrate (final concentration 13 mM). The blood is centrifuged at 170×g for 10 minutes, and the supernatant platelet-rich plasma (PRP) is removed. The remaining blood is thoroughly centrifuged once again to obtain plasma. The PRP is diluted 1:10 with autologous plasma. […] are incubated with […] of physiological saline, […] of test substance solution, […] of ^14 C-sucrose (3700 Bq) and 50 ml of ^3 H-BIBU 52 (final concentration: 5 nM) at room temperature for 20 minutes. To measure the nonspecific binding, 5 ml of BIBU 52 (final concentration: […]) are used in place of the test substance. […] The pellet is dissolved in 500 ml of 0.2N NaOH, and 450 ml are mixed with 2 ml of scintillator and 25 ml of 5N HCl and measured. The remaining plasma still present in the pellet is determined from the ^14 C content, and the bound ligand is determined from the ^3 H measurement. After subtraction of the nonspecific binding, the activity in the pellet is plotted against the concentration of test substance, and the concentration for 50% inhibition of binding is found.

[2] = system: collagen-induced thrombocyte aggregation; experiment: Inhibition of collagen-induced thrombocyte aggregation ex vivo after oral administration; format: in vivo; conditions: Rhesus monkeys; oral administration of 1 mg/kg

| Structure (SMILES) | EC50 [1] [nM] | deaths / tolerance after intravenous administration (mice) | IC50 (Human thrombocytes) [nM] | duration of inhibition of collagen-induced thrombocyte aggregation ex vivo [2] |
| --- | --- | --- | --- | --- |
| CN1CCc2ccc(N3CCN(c4ccc(CCC(=O)O)cc4)C3=O)cc2CC1 [8(1), 1-[4-(2-carboxyethyl)phenyl]-3-(3-methyl-2,3,4,5-tetrahydro-1H-3-benzazepin-7-yl)-imidazolidin-2-one-hydrochloride×1.5 water] | 150 | none of the three test animals died | 36 | – |
| CN1CCc2ccc(N3CCN([C@H]4CC[C@H](CCC(=O)O)CC4)C3=O)cc2CC1.Cl [Example 19, 1-[trans-4-(2-Carboxyethyl)cyclohexyl]-3-(3-methyl-2,3,4,5-tetrahydro-1H-3-benzazepin-7-yl)-imidazolidin-2-one-hydrochloride] | 230 | none of the three test animals died | 59 | more than 8 hours |

Reference: US5827849A, “Cyclic dericatives, pharmaceutical compositions containing these compounds and processes for preparing them” (Karl Thomae GmbH, priority 1993, dated 1998)
